Measurements as given in paper PMC3961306, “Comparison of the Cancer Gene Targeting and Biochemical Selectivities of All Targeted Kinase Inhibitors Approved for Clinical Use” (PLoS ONE, 2014).
Read-outs that look alike come from different tables or passages of the source.

What was measured:
Assay in all cases: Kinase profiling in a biochemical assay panel (mobility shift assays and ELISA), %-inhibition at 1 μM; selectivity entropy
[1] = target: T1, panel of more than 300 wild-type and mutant kinases (313 kinase panel) (Homo sapiens, UniProt Q06418)
T1 sequence (Q06418 41-890): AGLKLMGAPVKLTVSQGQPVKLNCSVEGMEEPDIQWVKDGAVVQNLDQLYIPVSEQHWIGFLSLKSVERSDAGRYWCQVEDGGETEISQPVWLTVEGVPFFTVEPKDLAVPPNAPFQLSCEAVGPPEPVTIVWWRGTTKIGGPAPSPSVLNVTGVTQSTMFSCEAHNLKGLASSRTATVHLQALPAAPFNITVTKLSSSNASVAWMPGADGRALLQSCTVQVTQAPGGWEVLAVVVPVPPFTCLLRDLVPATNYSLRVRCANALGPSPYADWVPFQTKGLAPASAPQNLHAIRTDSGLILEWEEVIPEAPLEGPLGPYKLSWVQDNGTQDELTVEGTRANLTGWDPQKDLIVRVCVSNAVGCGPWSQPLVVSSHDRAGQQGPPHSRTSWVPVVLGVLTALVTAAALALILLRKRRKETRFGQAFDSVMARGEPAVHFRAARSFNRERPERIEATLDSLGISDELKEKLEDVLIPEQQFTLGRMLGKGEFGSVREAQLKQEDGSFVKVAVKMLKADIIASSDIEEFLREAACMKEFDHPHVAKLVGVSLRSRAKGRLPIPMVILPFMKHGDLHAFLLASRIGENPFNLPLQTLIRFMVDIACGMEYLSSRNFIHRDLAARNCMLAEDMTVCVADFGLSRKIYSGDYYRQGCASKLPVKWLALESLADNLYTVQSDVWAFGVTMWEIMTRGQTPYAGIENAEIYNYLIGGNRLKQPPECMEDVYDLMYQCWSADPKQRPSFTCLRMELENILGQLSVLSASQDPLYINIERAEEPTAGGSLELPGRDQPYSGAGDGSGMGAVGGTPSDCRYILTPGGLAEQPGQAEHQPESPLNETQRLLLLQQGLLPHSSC

[2] = target: panel of more than 300 wild-type and mutant kinases (313 kinase panel) (Homo sapiens, UniProt Q00526)
panel of more than 300 wild-type and mutant kinases (313 kinase panel) (Homo sapiens, UniProt Q00526), sequence (Q00526 whole entry, change not shown): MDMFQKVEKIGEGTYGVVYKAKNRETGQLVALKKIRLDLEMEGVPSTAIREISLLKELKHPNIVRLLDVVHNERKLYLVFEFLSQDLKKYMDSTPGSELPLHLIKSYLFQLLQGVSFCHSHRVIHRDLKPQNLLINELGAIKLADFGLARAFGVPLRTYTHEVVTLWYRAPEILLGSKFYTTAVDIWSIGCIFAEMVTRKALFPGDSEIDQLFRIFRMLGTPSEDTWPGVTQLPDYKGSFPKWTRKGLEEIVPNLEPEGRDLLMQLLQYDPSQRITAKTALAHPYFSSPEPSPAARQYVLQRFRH

[3] = target: panel of more than 300 wild-type and mutant kinases (313 kinase panel) (Homo sapiens, UniProt O75116)
[4] = target: panel of more than 300 wild-type and mutant kinases (313 kinase panel) (Homo sapiens, UniProt P09769)
[5] = target: panel of more than 300 wild-type and mutant kinases (313 kinase panel) (Homo sapiens, UniProt P36894)
[6] = target: T2, panel of more than 300 wild-type and mutant kinases (313 kinase panel) (Homo sapiens, UniProt Q13163)
T2 sequence (Q13163 1-448): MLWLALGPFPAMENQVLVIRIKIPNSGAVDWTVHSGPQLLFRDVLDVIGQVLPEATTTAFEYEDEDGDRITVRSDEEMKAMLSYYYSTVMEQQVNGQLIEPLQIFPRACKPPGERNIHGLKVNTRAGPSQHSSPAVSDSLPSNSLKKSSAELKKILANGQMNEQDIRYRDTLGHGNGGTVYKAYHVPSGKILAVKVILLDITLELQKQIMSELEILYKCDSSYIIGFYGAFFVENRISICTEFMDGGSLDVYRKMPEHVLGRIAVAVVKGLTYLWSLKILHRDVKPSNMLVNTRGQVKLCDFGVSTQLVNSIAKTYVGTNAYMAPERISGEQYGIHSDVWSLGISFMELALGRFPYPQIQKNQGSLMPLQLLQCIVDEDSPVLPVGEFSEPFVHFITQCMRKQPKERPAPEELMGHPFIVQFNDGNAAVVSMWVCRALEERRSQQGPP

[7] = target: panel of more than 300 wild-type and mutant kinases (313 kinase panel) (Homo sapiens, UniProt P50750)
[8] = target: panel of more than 300 wild-type and mutant kinases (313 kinase panel) (Homo sapiens, UniProt P54756)
[9] = target: panel of more than 300 wild-type and mutant kinases (313 kinase panel) (Homo sapiens, UniProt P80192)
panel of more than 300 wild-type and mutant kinases (313 kinase panel) (Homo sapiens, UniProt P80192), sequence (P80192 whole entry, change not shown): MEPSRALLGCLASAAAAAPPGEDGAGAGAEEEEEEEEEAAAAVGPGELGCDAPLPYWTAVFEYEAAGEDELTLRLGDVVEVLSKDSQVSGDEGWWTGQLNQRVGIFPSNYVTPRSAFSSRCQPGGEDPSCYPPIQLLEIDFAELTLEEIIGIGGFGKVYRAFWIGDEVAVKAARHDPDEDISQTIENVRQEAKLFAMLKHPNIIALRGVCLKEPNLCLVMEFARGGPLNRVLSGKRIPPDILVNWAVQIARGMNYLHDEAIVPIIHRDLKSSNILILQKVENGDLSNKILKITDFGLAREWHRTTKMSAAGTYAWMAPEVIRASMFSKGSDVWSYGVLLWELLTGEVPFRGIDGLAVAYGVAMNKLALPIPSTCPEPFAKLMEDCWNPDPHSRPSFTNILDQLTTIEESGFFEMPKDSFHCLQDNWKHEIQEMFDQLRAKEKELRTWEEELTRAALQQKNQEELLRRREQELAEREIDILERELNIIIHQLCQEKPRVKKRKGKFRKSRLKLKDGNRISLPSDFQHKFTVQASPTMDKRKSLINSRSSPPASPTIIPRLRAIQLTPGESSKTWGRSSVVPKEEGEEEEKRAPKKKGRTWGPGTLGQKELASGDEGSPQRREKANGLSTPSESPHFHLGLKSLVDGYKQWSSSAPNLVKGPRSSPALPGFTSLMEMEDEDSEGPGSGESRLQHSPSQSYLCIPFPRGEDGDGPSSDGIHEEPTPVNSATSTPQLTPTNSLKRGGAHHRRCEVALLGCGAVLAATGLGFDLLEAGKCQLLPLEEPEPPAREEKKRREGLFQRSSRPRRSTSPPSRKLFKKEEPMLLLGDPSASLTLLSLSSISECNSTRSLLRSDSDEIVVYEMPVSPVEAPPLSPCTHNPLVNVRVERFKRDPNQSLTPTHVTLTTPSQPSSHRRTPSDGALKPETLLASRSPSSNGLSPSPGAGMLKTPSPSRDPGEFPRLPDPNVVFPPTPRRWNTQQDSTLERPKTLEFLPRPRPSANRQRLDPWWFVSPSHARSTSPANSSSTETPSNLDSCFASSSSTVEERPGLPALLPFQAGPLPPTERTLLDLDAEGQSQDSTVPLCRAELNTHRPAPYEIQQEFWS

[10] = target: panel of more than 300 wild-type and mutant kinases (313 kinase panel) (Homo sapiens, UniProt P51451)
panel of more than 300 wild-type and mutant kinases (313 kinase panel) (Homo sapiens, UniProt P51451), sequence (P51451 whole entry, change not shown): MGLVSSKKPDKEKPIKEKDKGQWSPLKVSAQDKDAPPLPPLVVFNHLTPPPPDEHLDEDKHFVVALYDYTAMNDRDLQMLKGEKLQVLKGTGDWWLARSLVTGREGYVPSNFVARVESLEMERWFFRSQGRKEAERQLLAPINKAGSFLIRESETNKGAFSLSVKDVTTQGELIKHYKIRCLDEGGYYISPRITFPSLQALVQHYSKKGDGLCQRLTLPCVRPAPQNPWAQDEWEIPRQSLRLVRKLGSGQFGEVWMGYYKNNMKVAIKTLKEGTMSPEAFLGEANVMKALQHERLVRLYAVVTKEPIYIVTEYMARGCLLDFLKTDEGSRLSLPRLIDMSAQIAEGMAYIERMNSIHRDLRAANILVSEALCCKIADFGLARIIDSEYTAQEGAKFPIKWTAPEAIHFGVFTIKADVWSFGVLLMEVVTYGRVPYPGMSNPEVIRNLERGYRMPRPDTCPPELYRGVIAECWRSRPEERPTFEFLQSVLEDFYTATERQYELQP

[11] = kinase CDK3/CycE1, 1 μM compound
[12] = kinase MAP2K5, compound at 1 μM
[13] = kinase CDK9/CycT1, 1 μM compound

| SMILES | %-inhibition of TYRO3 ([1]; kinase TYRO3, compound at 1 μM) | %-inhibition, CDK3/CycE1 [2, 11] | %-inhibition of ROCK2 ([3]; kinase ROCK2, 1 μM) | %-inhibition of FGR ([4]; kinase FGR, compound at 1 μM) | %-inhibition, BMPR1A ([5]; kinase BMPR1A, 1 μM compound) | %-inhibition of MAP2K5 [6, 12] | %-inhibition, CDK9/CycT1 [7, 13] | %-inhibition of EPHA5 ([8]; kinase EPHA5, compound at 1 μM) | %-inhibition of MLK1 ([9]; kinase MLK1, 1 μM) | %-inhibition, BLK ([10]; kinase BLK, 1 μM compound) | %-inhibition of ROCK2 ([3]; 1 µM) | %-inhibition, BMPR1A [5] | %-inhibition, CDK9/CycT1 ([7]; 1 µM) | %-inhibition of FGR ([4]; 1 µM) | %-inhibition of EPHA5 ([8]; 1 µM) | %-inhibition of TYRO3 ([1]; 1 µM) | %-inhibition, CDK3/CycE1 ([2]; 1 µM) | %-inhibition of MAP2K5 ([6]; 1 µM) | %-inhibition of MLK1 ([9]; 1 µM) | %-inhibition, BLK ([10]; 1 µM) |
| --- | --- | --- | --- | --- | --- | --- | --- | --- | --- | --- | --- | --- | --- | --- | --- | --- | --- | --- | --- | --- |
| CO[C@H]1C[C@@H]2CC[C@@H](C)[C@@](O)(O2)C(=O)C(=O)N2CCCC[C@H]2C(=O)O[C@H]([C@H](C)C[C@@H]2CC[C@@H](OCCO)[C@H](OC)C2)CC(=O)[C@H](C)/C=C(\C)[C@@H](O)[C@@H](OC)C(=O)[C@H](C)C[C@H](C)/C=C/C=C/C=C/1C [everolimus] | -2.32% | -4.51% | -5.49% | 1% | -3.21% | 1.34% | -4% | -1.69% | 5% | -7% |  |  |  |  |  |  |  |  |  |  |
| Cc1ccc(Nc2nccc(N(C)c3ccc4c(C)n(C)nc4c3)n2)cc1S(N)(=O)=O [pazopanib] | 27% | 0.931% | -0.78% | 86% | -1.7% | 13% | 31% | 32% | 90% | 62% |  |  |  |  |  |  |  |  |  |  |
| CNC(=O)c1cc(Oc2ccc(NC(=O)Nc3ccc(Cl)c(C(F)(F)F)c3)c(F)c2)ccn1 [regorafenib] | 34% | -1.17% | 2.65% | 56% | -4.65% | 17% | 1% | 97% | -7% | 25% |  |  |  |  |  |  |  |  |  |  |
| CC(=O)Nc1cccc(-n2c(=O)n(C3CC3)c(=O)c3c(Nc4ccc(I)cc4F)n(C)c(=O)c(C)c32)c1 [trametinib] | -2.65% | 0.16% | 3% | -9% | 2.14% | 13% | -2.31% | -2.67% | 16% | -2.79% |  |  |  |  |  |  |  |  |  |  |
| CO[C@H]1C[C@@H]2CC[C@@H](C)[C@@](O)(O2)C(=O)C(=O)N2CCCC[C@H]2C(=O)O[C@H]([C@H](C)C[C@@H]2CC[C@@H](OC(=O)C(C)(CO)CO)[C@H](OC)C2)CC(=O)[C@H](C)/C=C(\C)[C@@H](O)[C@@H](OC)C(=O)[C@H](C)C[C@H](C)/C=C/C=C/C=C/1C [temsirolimus] | -1.34% | -6% | -5.66% | -3% | -9% | -1.51% | -3.29% | -3.79% | 7.48% | -12% |  |  |  |  |  |  |  |  |  |  |
| CS(=O)(=O)CCNCc1ccc(-c2ccc3ncnc(Nc4ccc(OCc5cccc(F)c5)c(Cl)c4)c3c2)o1 [lapatinib] | 13% | 2.84% |  | 10% |  | 1.63% |  | 6% | 7% | 24% | -2% | 7.37% | 0.501% |  |  |  |  |  |  |  |
| N#CC[C@H](C1CCCC1)n1cc(-c2ncnc3[nH]ccc23)cn1 [ruxolitinib] | -3% | -9.52% | 87% |  | 5.7% | 7% | -3.29% |  | 53% | -1% |  |  |  | 10% | 18% |  |  |  |  |  |
| Cc1cn(-c2cc(NC(=O)c3ccc(C)c(Nc4nccc(-c5cccnc5)n4)c3)cc(C(F)(F)F)c2)cn1 [nilotinib] |  | -1.6% | -27% | 55% | -22% | -7.56% | 9% |  | -12% | 29% |  |  |  |  | 93% | -32% |  |  |  |  |
| C#Cc1cccc(Nc2ncnc3cc(OCCOC)c(OCCOC)cc23)c1 [erlotinib] |  |  |  |  |  |  |  |  |  |  | 4.44% | 12% | 2.63% | 29% | 38% | 20% | 7% | 92% | 14% | 31% |
